Values quoted from earlier work, collected in patent US12409168B2, “Formulations of aminopenicillin and methods for solubilizing aminopenicillin” (VETERINARY PHARMACY CORPORATION, priority 2023, dated 2025).

degradation at 24 hours (0.00015 mg/ml, 24 hours): no degradation | degradation to (potency remaining) at 24 hours (0.42 mg/ml, buffered solution, pH 8.04, 24 hours): 73%
SMILES: CC1(C)S[C@@H]2[C@H](NC(=O)[C@H](N)c3ccc(O)cc3)C(=O)N2[C@H]1C(=O)O [Amoxicillin]
